Results on 1 compound are retold here after US20050239889A1, “In vivo release of endogenous anti-microbial mediators by leukotriene B4 (LTB4) administration” (priority 2004, published 2005).

The subject of assay [1] is α-Defensins. Nature of the assay: Plasma α-Defensins (ELISA) after subcutaneous LTB4 administration to monkeys. It is filed as in vivo, Macaca fascicularis. The following applies: macaques. The method, then: Two macaques (Macaca fascicularis) were used for the study. For subcutaneous injections, the areas to be injected were first shaved one day before dosing. Volumes of 0.075 mL (monkey IJI) or 0.1 mL (monkey JKN) of LTB4 solution were administered subcutaneously in the arm of the animal to compensate for slight difference between both monkeys. Venous blood samples were collected at various time points with all plasma isolation procedures performed at 4° C. Platelet-free plasma samples were stored at −80° C. until assayed for α-Defensins using a commercial ELISA kit (HyCult Biotechnology bv, The Netherlands). We next studied the change in plasmatic concentration of the antimicrobial peptides α-Defensins in monkeys following subcutaneous (s.c.) administration of LTB4. Monkeys were injected s.c. with 5,5 μg/kg or 50 μg/kg of LTB4 and blood samples were taken at various time points and used for (α-Defensins measurements in the plasma, using a commercial ELISA kit. The results obtained are presented in FIGS. 3A (5,5 μg/kg) and 3B (50 μg/kg). Two macaques (IJI and JKN) were injected subcutaneously with 5,5 μg/kg (A) or 50 μg/kg (B) of LTB4. Blood samples were collected at various time points and α-Defensins levels measured in plasma samples using a commecial ELISA kit. Overall, the data obtained indicate that α-Defensins levels in plasma remain relatively stable up to 15 minutes post-LTB4 administration. α-Defensins levels started to increase by 30 minutes and peaked at two hours post LTB4 administration. […] For monkeys that received 50 μg/kg, (α-Defensins levels remained at their highest up to 4 hours post injection, followed by a gradual decrease. In both sets (5,5 μg/kg and 50 μg/kg), the levels of α-Defensins remained above baseline values up to 6 hours following LTB4 delivery

Assay [2] concerns α-Defensins. Nature of the assay: Plasma α-Defensins (ELISA) after intravenous LTB4 administration to human subjects, Phase I study. It is filed as in vivo. The method, then: (§1) Plasma samples were obtained from 19 HIV-uninfected human volunteers taking part in a Phase I clinical study on the safety and tolerability of intravenously (i.v.) administered bolus of LTB4. In brief, 3 individuals received saline (placebo) and 16 (4 subjects/group) were administered LTB4 in doses ranging from 0.05 μg/kg to 50 μg/kg per day for 7 consecutive days. Venous blood was collected twice before injection (-5 and -2 minutes) to establish baseline values. Following the i.v. administration of saline or LTB4, blood samples were drawn at 0.5, 1, 2, 4, 6, and 24 hours post-injection into blood collection tubes, using EDTA as anti-coagulant. Immediately after blood collection, the samples were put on ice until processed. All plasma isolation procedures were carried out at 4° C. Plasma samples were stored at −80° C. until assayed by ELISA for α-Defensins (HyCult Biotechnology bv, The Netherlands) and MIP-β(Amersham/Pharmacia, Baie d'Urfé, Canada).
Healthy volunteers participating in a Phase I clinical study on the safety and tolerability of intravenously administered LTB4, were randomized into 5 groups: placebo (n=3), LTB4 0.05 μg/kg (n=4), LTB4 0.5 μg/kg (n=4), LTB4 5 μg/kg (n=4) and LTB4 50 μg/kg (n=4). LTB4 was administered once daily for 7 consecutive days and plasma samples (0-6 hours post-LTB4 administration) from all 19 volunteers were tested for the presence of α-Defensins using a commercial ELISA kit. The mean ± standard error of α-Defensins releases (ng/ml plasma) for each group are presented in FIG. 1 with statistical analysis performed using the placebos as control group. Healthy individuals received a placebo (3 subjects) or doses of LTB4 ranging form 0.05 μg/kg to 50 μg/kg (n=4 subjects/group). Plasma samples were obtained at various time points before and after LTB4 injections and the α-Defensin levels determined by ELISA. The data shown in FIG. 1 represent the mean ± standard error of α-Defensins (ng/mL plasma) of all subjects within each group. P values were determined by comparing the mean α-Defensin levels of each group that received LTB4 versus the placebo group at the same time points. *p<0.001; **p<0.05. Plasma samples obtained before placebo or LTB4 injections indicate that there were no significant differences in the basal levels of α-Defensins between the groups.
A general note: ELISA stands for enzyme-linked immunosorbent assay.

In another assay the test system is MIP-1β. Nature of the assay: Plasma MIP-1β (ELISA) after intravenous LTB4 administration to human subjects, Phase I study. Type of assay: in vivo. Conditions: i.v. As to the method: as §1
Considering that soluble anti-HIV factors include β-chemokines and that neutrophils are capable of producing MIP-1β, we measured the levels of this β-chemokine in plasma of individuals that received a placebo or LTB4 (same cohorts as mentioned above). Plasma samples from healthy subjects that received a placebo (n=3) or LTB4 (5 and 50 μg/kg [n=4 subjects/group]) were obtained at various time points before and after LTB4 injections. Data are expressed as mean ± […] of the mean of MIP-1β levels (pg/ml) for all subjects within each group. P values were determined by comparing the mean MIP-1β levels of each group that received LTB4 versus the placebo group at the same time points. *p<0.025. […] Plasma samples from subjects that received the 2 lowest doses of LTB4 were not tested for MIP-1β.

As for `CCCCC/C=C\C[C@@H](O)/C=C/C=C/C=C\[C@@H](O)CCCC(=O)O` [LTB4, 5S,12R-dihydroxy-6,8,10,14(Z,E,E,Z)-eicosatetraenoic acid], in the assay on α-Defensins [1] (s.c., 50 μg/kg, followed by a gradual decrease), the “time α-Defensins levels remained at their highest post injection” value is “up to 4 hours”. Also, in the assay on α-Defensins [1] (s.c., 5,5 μg/kg or 50 μg/kg), the “time of peak α-Defensins levels post LTB4 administration” value was “two”, the “time α-Defensins levels in plasma remain relatively stable post-LTB4 administration” value is listed as “up to 15 minutes” and the “time α-Defensins levels started to increase” value was found to be 30 min. The “course of α-Defensins levels after the peak” value in the assay with α-Defensins [1] (s.c., 5,5 μg/kg, experiment ended at hour 6) was “started to drop by the fourth hour and continued to do so up to hour 6”. In addition, the “time levels of α-Defensins remained above baseline values following LTB4 delivery” value in the assay with α-Defensins [1] (s.c., both 5,5 μg/kg and 50 μg/kg) was “up to 6 hours”. Further, the “release of α-Defensins in plasma, dose dependence” value in the assay on α-Defensins [2] (i.v. bolus once daily for 7 days, 0.05 to 50 μg/kg, versus placebo group) is on record as “triggered dose-dependent release of α-Defensins”. Moreover, in the assay on α-Defensins [2] (i.v., 0.5 μg/kg), the “increase in plasmatic α-Defensins” value is “although not significant, caused a measurable increase in plasmatic α-Defensins” and the “time of maximal effect on plasmatic α-Defensins post-LTB4 administration” value is reported as “two”. For the same compound, in the assay with α-Defensins [2] (i.v., 5 μg/kg and 50 μg/kg), the “time of peak α-Defensin levels” value was determined as 2 h and the “time to significant increase of α-Defensin release following LTB4 injections” value is 30 min. In addition, the “peak α-Defensin levels over the placebo group” value in the assay with α-Defensins [2] (i.v., 5 μg/kg and 50 μg/kg, at 2 hours, p<0.001) is listed as 5-7 fold. Moreover, in the assay with α-Defensins [2] (i.v., 5 μg/kg and 50 μg/kg, p<0.05), the “time α-Defensin levels remained above the control levels post-LTB4 administration” value was “up to 6 hours”. The “α-Defensins levels 24 hours post-LTB4 administration” value with α-Defensins [2] (i.v., 24 hours) is recorded as “back to the pre-injection levels”. Moreover, in the assay with α-Defensins [2] (i.v., lowest dose of LTB4 (0.05 μg/kg)), the “α-Defensins release in plasma” value is “did not significantly enhanced α-Defensins release”. In addition, in the assay on MIP-1β (5-50 μg/kg), the “start of elevation in plasmatic MIP-1β levels post-LTB4 injection” value was determined as 1 h and the “time of maximal plasmatic MIP-1β levels post-LTB4 injection” value is 2 h. Moreover, in the assay with MIP-1β (5-50 μg/kg, 6 hours), the “MIP-1β plasmatic levels at 6 hours post-LTB4 administration” value is listed as “had returned to original levels”. For the same compound, the “statistical significance of MIP-1β elevation versus placebo” value in the assay on MIP-1β (5 and 50 μg/kg groups, n=4 per group, p<0.025) was “statistical significance was observed only for those that received the highest dose of LTB4”.
